Data on 1 molecule can be found in article PMC3997483, “Aminostyrylbenzofuran Directly Reduces Oligomeric Amyloid-β and Reverses Cognitive Deficits in Alzheimer Transgenic Mice” (PLoS ONE, 2014).

SMILES strings stand for the structures. Like-named read-outs stand apart in the source and are kept apart here.

The subject of data set [1] is Aβ40 and Aβ42. Nature of the data set: Aβ40/Aβ42 sandwich ELISA of brain tissue, prophylactic trial. It is filed as in vivo, mouse.
Procedure: Mice subjected to behavior tests were sacrificed and levels of Aβ in their brains were analyzed. After removing olfactory lobe and cerebellum of brain, hippocampus and cerebral cortex were separated. The separated regions were Dounce-homogenized first in 10-fold mass of a lysis buffer (RIPA, 150 mM NaCl, 1% NP-40, 0.5% deoxycholic acid, 0.1% SDS and 50 mM tris, pH 8.0) or tris buffer (50 mM tris and pH 8.0) containing protease inhibitor cocktail (Pierce, USA) for prophylactic or therapeutic treatment groups, respectively. […] The supernatant (soluble Aβ fraction) was collected and stored at −70°C until analyzed. The resulting pellet was solubilized in 20-fold mass of cold guanidine solution (5 M guanidine HCl, 50 mM tris HCl and pH 8.0) at room temperature for 4 hr followed by dilution with cold Dulbecco's phosphate buffered saline (PBS) with 5% BSA and 0.03% tween-20. […] The tissue concentrations of Aβ40 and Aβ42 in the soluble and insoluble fraction were measured using Aβ-detecting sandwich enzyme-linked immunosorbent assay (ELISA) kit (BioSource, USA). The levels of soluble Aβ oligomers were measured by a dot-blot immunoassay with an anti-oligomer antibody and an anti-Aβ antibody on soluble fraction of hippocampus homogenates. The homogenate sample (3 µL) was spotted onto nitrocellulose membrane (Whatman, UK). After blocking with 5% BSA in tris-buffered saline (TBS) for 1 hr at room temperature, the membrane was incubated with rabbit anti-oligomer polyclonal antibody (A11; 1∶1,000; Millipore, USA) overnight at 4°C, followed by incubation with HRP-secondary anti-rabbit antibody (1∶5,000; Millipore, USA) for 1 hr at room temperature. Blots were developed using ECL reagents (PerkinElmer, USA). Blots were re-identified after oligomeric antibody was stripped and re-probing with the anti-Aβ antibody 6E10 (1∶1,000; Signet, UK). The density of dots was analyzed with Multi Gauge program (Fuji Film, Japan) and the data was normalized to the average density of the TG control group. […] Membrane was incubated in a 5% solution of non-fat dry milk for 1 hr at room temperature. […]
The nature of data set [2]: Pharmacokinetics IV/PO in mice. It is filed as in vivo, ICR mice. To be noted: for AUC(0-t): read-out: AUC0–24h. How it is done:
Pharmacokinetics profile of KMS88009 was obtained using ICR mice, SD rats, beagle dogs and cynomolgus monkeys. Animals were fasted overnight before KMS88009 administration. Mice were divided into 2 groups to receive KMS88009 as a single dose of 2.1 mg/kg intravenous (IV) bolus or 10 mg/kg orally (PO) by gavage. Additionally, KMS88009 was administered orally to estimate the BBB penetration in mice (10, 30 and 100 mg/kg). […] Dog received KMS88009 either as an IV bolus (1 mg/kg) via the great saphenous vein or by oral gavage (4 mg/kg). KMS88009 was administrated to monkeys as an IV bolus (1 mg/kg) via the femoral vein or by oral gavage (4 mg/kg). Vehicle for IV and PO administration was DMSO/tween-20/saline (3.3∶19.8∶[…]). […]. Brain samples were weighed and Daunce-homogenized in 10-fold volume of ice-chilled 4% bovine serum albumin (BSA) solution at room temperature. Plasma and brain homogenates were kept frozen at −70°C until analysis. The levels of KMS88009 were determined by the LC-MS/MS analysis. Pharmacokinetic parameters, time to the maximum concentration (Tmax), maximum concentration (Cmax), elimination half-life (T1/2), volume of distribution (Vd), clearance (Cl) and mean residual time (MRT), of KMS88009 were calculated based on plasma concentration-time data by a non-compartmental method using WinNonlin Version 5.2 (Pharsight, USA). Area under the curve from 0 to 24 hr (AUC0-24h) and area under the curve from 0 to infinity (AUCINF) were obtained by linear and log linear trapezoidal summations.

Data set [3] in a line: Metabolic stability in liver microsomes. It is filed as in vitro ADME, human. A general note: Liver microsomes are a subcellular fraction often used to study metabolism.
[4] abbreviates: cortex, 10-100 mg/kg/day groups.
Where [5] appears, read: ICR, plasma, mouse IV 2.1 mg/kg.
Setting [6] is: ICR, mouse IV 2.1 mg/kg, plasma.

As for `COc1ccc2cc(C=Cc3ccc(N(C)C)cc3)oc2c1` [KMS88009, 6-methoxy-2-(4-dimethylaminostyryl) benzofuran], in data set [1] (setting [4]), the “reduction of soluble Aβ40 level vs TG group” value is recorded as 44∼60% and the “reduction of soluble Aβ42 level vs vehicle-treated TG mice” value is recorded as 59∼66%. In data set [1] (hippocampus, except the 10 mg/kg/day group), the “reduction of soluble Aβ40 level vs TG group” value was 34∼36%. Besides, in data set [2] (setting [5]), the MRT last – broadly, a mean duration of stay, worked out from the concentration-time curve – is 2.9 h; the Vd came to 32.1 L/kg; the clearance is 63.3 mL/min/kg; the half-life (commonly the time in which the quantity being followed falls by half) is 5.9 h. In data set [2] (ICR, plasma, mouse PO 10 mg/kg), the mean residence time (MRT last) was 5.5 h; the time of peak concentration (Tmax) (in general, the time at which the peak concentration occurs) worked out at 1 h; the half-life was 4.6 h. In data set [2] (setting [6]), the AUC(0-inf) (usually the area under the concentration-time curve extrapolated to infinity) amounted to 1330 ng·h/mL and the AUC(0-t) was 1300 ng·h/mL. For the same molecule, in data set [2] (ICR, mouse PO 10 mg/kg, plasma), the AUC(0-inf) came out at 6310 ng·h/mL, the Cmax (usually the peak of the concentration-time curve) is 1060 ng/mL and the AUC(0-t) was 6160 ng·h/mL. Besides, the BA in data set [2] (mouse PO 10 mg/kg vs IV […]) was determined as 99.6%. For the same molecule, the Metabolic stability entry in data set [3] (human liver microsomes 1 mg/mL, 5 µM, symbol) is given as “√ (Mean percent value is confirmed over 90% at 60 min.)”. The amount remaining (usually what is left of the initial amount, in per cent) at 1 h, 5 µM in data set [3] (human liver microsomes, read-out: Remaining % of parent molecule at 60 min.) was determined as 92.7 ± 0.4%.
